The values below are quoted from earlier work in US20230301959A1, “COMBINATIONS OF CARNOSINE AND ZINC FOR THE TREATMENT AND PREVENTION OF VIRAL INFECTIONS” (priority 2020, published 2023).

In one series the test system is Dengue and Zika virus. The following applies: liver cell culture.
For series [1] the following is noted: dietary administration.
Another series deals with H9N2 influenza virus. The note with it: mouse, in vivo, po, 10 mg/kg.
The test system of another series is human rhinovirus. The following applies: infected cells.
The test system of series [2] is viral RNA-dependent RNA polymerase (RdRp) from hepatitis C.
The target of series [3] is T1, arterivirus RNA polymerase (Equine arteritis virus, UniProt P19811).
T1 sequence (P19811 1678-2370 limits assumed): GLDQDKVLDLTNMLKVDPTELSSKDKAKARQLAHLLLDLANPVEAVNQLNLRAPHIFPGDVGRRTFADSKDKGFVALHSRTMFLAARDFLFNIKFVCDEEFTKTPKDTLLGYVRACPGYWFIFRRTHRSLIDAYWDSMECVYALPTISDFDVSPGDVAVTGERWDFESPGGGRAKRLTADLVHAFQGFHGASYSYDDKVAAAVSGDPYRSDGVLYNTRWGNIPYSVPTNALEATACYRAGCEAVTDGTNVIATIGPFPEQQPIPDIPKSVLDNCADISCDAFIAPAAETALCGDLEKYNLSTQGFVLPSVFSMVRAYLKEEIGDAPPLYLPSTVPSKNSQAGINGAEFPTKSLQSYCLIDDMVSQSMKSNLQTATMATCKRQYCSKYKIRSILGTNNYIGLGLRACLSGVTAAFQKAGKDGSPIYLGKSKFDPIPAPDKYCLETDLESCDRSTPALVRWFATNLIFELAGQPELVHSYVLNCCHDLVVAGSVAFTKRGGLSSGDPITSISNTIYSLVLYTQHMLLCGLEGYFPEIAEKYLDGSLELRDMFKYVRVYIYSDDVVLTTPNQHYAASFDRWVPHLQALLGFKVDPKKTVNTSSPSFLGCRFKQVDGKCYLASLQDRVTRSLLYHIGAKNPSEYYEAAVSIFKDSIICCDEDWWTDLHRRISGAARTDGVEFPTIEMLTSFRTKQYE
The note with it: in vitro.

Series [4] addresses coronavirus RNA polymerase (Severe acute respiratory syndrome coronavirus, UniProt P0C6X7).
Series [5] addresses T2, viral RNA-dependent RNA polymerase (RdRp) from rhinoviruses (Human rhinovirus 16, UniProt Q82122).
T2 construct: viral RNA-dependent RNA polymerase (RdRp) from rhinoviruses and hepatitis C

In the next series the test system is coxsackievirus B3. The following applies: infected cells.
The target of a further series is poliovirus 3C protease (Poliovirus type 1, UniProt P03300).
The next series deals with rhinovirus 3C protease (Human rhinovirus 14, UniProt P03303).
Sequence of rhinovirus 3C protease (P03303 1538-1719 limits assumed): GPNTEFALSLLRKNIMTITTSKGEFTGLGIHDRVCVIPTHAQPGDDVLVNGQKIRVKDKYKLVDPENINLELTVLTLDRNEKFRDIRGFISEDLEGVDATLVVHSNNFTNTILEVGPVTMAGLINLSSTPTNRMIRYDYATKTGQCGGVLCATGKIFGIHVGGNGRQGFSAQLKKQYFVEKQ

T2 sequence (Q82122 1694-2153 limits assumed): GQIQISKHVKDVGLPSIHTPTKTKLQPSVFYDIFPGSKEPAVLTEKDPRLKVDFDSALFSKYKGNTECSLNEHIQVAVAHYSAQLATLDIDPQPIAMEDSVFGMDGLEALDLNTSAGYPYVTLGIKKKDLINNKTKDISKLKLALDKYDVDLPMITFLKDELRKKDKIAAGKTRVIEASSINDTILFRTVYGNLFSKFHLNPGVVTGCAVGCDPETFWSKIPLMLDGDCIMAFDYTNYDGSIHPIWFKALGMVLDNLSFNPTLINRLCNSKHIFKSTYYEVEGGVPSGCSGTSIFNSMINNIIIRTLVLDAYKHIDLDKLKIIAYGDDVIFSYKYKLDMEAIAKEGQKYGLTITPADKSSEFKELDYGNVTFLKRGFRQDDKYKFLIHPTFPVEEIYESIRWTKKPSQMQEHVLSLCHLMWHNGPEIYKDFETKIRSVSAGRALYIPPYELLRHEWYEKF
Sequence of poliovirus 3C protease (P03300 1566-1748 limits assumed): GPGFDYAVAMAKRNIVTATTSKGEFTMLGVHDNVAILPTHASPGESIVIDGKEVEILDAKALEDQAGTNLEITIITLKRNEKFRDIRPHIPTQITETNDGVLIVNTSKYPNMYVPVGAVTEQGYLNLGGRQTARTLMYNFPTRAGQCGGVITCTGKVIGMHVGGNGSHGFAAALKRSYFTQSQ

In the case of `NCCC(=O)N[C@@H](Cc1cnc[nH]1)C(=O)O` [carnosine, β-alanyl-L-histidine], in the series on Dengue and Zika virus, the “cell viability post infection” value is on record as “ameliorate” and the viral genome replication result is “significantly inhibit”. Also, the “safety of regular administration” value (2-4 months, in combination with forskolin, homotaurine, vitamins B1, B2, B6, folic acid, magnesium, different age groups) is “safe”. Further, the tolerability result (2 weeks, obese patients with Type-II diabetes and Gulf-War Veterans, without any reported adverse reactions) is recorded as “well tolerated”. Moreover, in [1], the “early atherosclerotic lesion formation” value was “prevent” and the renal disease entry was “attenuating”. For the same compound, in the series with H9N2 influenza virus, the “levels of TNF-a, IL-1b, TLR-4 mRNA and protein” value was “significantly reduced”; the “lung wet mass ratio” value was “decreased”; the myeloperoxidase activity result is on record as “reduced”; the overall mortality is given as 43%. For the same compound, the pathological lung lesions result in the series on H9N2 influenza virus is on record as “improvement”.
As for `[Zn+2]` [zinc ion], the polyprotein processing result in the series with human rhinovirus and in the series with coxsackievirus B3 was “inhibited” throughout. Besides, the “activity of RdRp” value in series [2] and in series [5] was “inhibitory effect” in each case. In addition, the RNA polymerase activity result in series [3] and in series [4] was “inhibits” each time. Also, the protease activity result at poliovirus 3C protease and on rhinovirus 3C protease was “inhibited” throughout.
